One assay concerns E-tag antibody. Put plainly: ELISA analysis of phage on antibody raised against ETAG (positive control). The note with it: peptide binding to E-tag antibody; phage ELISA units read at 405 nm. An outline of the steps: (§1)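 Phage from picked clones (M13KO7 helper) bound 2 hr at room temperature to wells coated overnight at 4 °C with 500 ng/well anti-ETAG antibody or LDH, milk-blocked. Detection with HRP-anti-M13 (1:3000) and ABTS at 405 nm; positive when A405 ≥2-fold over background.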
(ELISA stands for enzyme-linked immunosorbent assay.)

The target in the next assay is T1, DGI-2 (Homo sapiens, UniProt Q15004).
T1 construct: encompassed the entire DGI-2 open reading frame (ORF); His-tag of vector pIVEX2.3-MCS (inferred from the vector and from the reverse primer lacking a stop codon); made in house; host or cells: cell-free in vitro translation (Rapid Translation System RTS, Roche; E. coli lysate)
T1 sequence (Q15004 1-111): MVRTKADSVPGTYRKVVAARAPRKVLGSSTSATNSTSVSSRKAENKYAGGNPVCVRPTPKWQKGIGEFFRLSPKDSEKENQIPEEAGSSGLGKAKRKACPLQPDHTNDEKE
Briefly: ELISA analysis of phage on DGI-2 polypeptide (specific binding). An outline of the steps: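 Recombinant DGI-2 from in vitro translation, LDH (non-specific) and controls were coated at 500 ng/well and blocked with 2% milk-PBS. Phage from individual clones bound for 2 hr at room temperature, then anti-M13-HRP with ABTS was read at 405 nm; a clone counted as positive at ≥2-fold over background.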

The subject of assay [1] is lactate dehydrogenase (LDH). Briefly: ELISA analysis of phage on LDH (irrelevant, non-specific target). The assay is classed as binding. The note with it: peptide binding to LDH polypeptide (non-specific binding); phage ELISA units read at 405 nm. An outline of the steps: as §1

On to “VQFAMTLSSRLWQHARHPLTDDAPPTVSFGTRRETLAGKA (DGI-2-40F-3-D3; listed as Escherichia coli)”, for which the “ETAG (OD)” value in the assay with E-tag antibody was determined as 0.9 OD. In addition, in the assay with DGI-2 (binding to DGI-2 polypeptide (specific binding), phage ELISA units read at 405 nm), the “DGI-2 (OD)” value amounted to 0.9 OD. Moreover, the “DGI-2/LDH (OD)” value with DGI-2 (ratio of specific binding to non-specific binding) is reported as 1.1. Besides, the “LDH (OD)” value in assay [1] worked out at 0.9 OD.
